Results on four compounds are retold here after article PMC8307647, “Bio-Guided Fractionation of Stem Bark Extracts from Phyllanthus muellarianus: Identification of Phytocomponents with Anti-Cholinesterase Activity” (Molecules, 2021).

In assay [1] the target is BuChE from human serum (Homo sapiens, UniProt P06276). Kind of assay: biochemical. The conditions noted are these: for inhibition at 100 µg/mL: read-out: Inhibition hBuChE at 100 µg/mL % ± SD. Type of assay: biochemical.
For assay [2], the system named is T1, Aβ1–42.
T1 construct: 42-aminoacid long Aβ peptide (Aβ1–42) self-aggregation; purchased Bachem AG, Bubendorf, Switzerland
Put plainly: Inhibition of Aβ1–42 self-aggregation, thioflavin T fluorescence assay. Type of assay: biochemical. As to conditions: 1:1 molar ratio with Aβ (50 μM), 30 °C, 24 h. Here is the method:
As reported in the previously published protocol by Bartolini et al., 1,1,1,3,3,3,hexafluoro 2-propanol pre-treated Aβ1–42 samples (Bachem AG, Bubendorf, Switzerland) were solubilized with a AcCN/0.3 mM Na2CO3/250 mM NaOH (48.4/48.4/3.2) mixture to obtain a 500 μM stock solution. Experiments were performed by diluting (final Aβ concentration 50 μM) and incubating the peptide in 10 mM phosphate buffer (pH = 8.0) containing 10 mM NaCl, at 30 °C for 24 h with and without nitidine (50 μM, Aβ/nitidine = 1/1). A blank sample containing nitidine was also prepared. To quantify amyloid fibril formation, the thioflavin T fluorescence method was used. After incubation, samples were diluted to a final volume of 2.0 mL with 50 mM glycine-NaOH buffer (pH 8.5) containing 1.5 μM thioflavin T. A 300-second time scan of fluorescence intensity was carried out (λexc = 446 nm; λem = 490 nm, FP-6200 fluorometer, Jasco Europe, Cremella, Italy), and values at plateau were averaged after subtracting the background fluorescence of 1.5 μM thioflavin T solution. The fluorescence intensities obtained in the absence and in the presence of nitidine were compared and the percent inhibition due to the presence of nitidine was calculated by the following formula: 100 − (100 × IFi/IFo), where IFi and IFo are the fluorescence intensities obtained for Aβ1–42 in the presence and in the absence of nitidine, respectively.

Assay [3] concerns the target Human recombinant AChE (Homo sapiens, UniProt P22303). Put plainly: biochemical. The conditions noted are these: for inhibition at 100 µg/mL: read-out: Inhibition hAChE at 100 µg/mL % ± SD.
Assay [4] relates to male Swiss mice. Further details: method as in PMID 29186770. The conditions noted are these: single dose 20 mg kg−1 b.w.; cited from earlier work.
The test system of assay [5] is Aβ. The conditions noted are these: cited from earlier work.
Assay [6] deals with human cholinesterases. As to conditions: cited from earlier work.

Where two headings read alike, the source gives them in different places.

Chain of BuChE from human serum (P06276 29-602): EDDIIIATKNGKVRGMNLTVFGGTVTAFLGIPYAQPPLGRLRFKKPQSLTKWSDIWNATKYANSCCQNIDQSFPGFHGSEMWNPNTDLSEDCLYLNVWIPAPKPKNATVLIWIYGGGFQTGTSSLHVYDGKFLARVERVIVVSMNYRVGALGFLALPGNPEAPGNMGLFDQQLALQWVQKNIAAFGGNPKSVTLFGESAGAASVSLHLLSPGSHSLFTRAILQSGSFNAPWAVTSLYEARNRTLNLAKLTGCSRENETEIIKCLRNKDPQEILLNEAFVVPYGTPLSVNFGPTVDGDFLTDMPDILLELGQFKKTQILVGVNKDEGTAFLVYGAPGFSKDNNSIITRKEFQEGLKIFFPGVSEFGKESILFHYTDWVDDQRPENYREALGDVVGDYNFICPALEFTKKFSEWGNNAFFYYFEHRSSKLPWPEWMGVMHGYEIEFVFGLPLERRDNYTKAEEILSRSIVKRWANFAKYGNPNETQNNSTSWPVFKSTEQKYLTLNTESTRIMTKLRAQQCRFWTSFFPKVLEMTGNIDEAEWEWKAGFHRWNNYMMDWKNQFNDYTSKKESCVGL
Chain of Human recombinant AChE (P22303 32-614): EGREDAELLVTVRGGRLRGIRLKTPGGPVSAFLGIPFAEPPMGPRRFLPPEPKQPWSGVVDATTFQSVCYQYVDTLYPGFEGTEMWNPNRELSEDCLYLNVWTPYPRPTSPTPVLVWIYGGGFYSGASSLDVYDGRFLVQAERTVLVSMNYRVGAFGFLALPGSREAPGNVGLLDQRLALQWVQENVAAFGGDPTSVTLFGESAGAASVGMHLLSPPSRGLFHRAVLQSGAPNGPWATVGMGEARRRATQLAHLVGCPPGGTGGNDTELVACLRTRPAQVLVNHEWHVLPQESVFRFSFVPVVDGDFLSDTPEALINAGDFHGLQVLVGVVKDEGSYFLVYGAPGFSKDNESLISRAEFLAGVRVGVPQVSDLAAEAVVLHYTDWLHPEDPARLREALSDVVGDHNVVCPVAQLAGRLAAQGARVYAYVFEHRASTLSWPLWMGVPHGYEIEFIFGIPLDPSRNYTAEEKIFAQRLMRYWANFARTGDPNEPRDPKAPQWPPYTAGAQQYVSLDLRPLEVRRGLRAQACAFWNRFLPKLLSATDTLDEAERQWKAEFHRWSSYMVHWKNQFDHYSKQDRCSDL

`COc1cc2c[n+](C)c3c4cc5c(cc4ccc3c2cc1OC)OCO5` [Nitidine (PC3), 2,3-dimethoxy-12-methyl-[1,3]benzodioxolo[5,6-c]phenanthridin-12-ium]: in assay [1], the 50% inhibitory concentration (IC50) came out at 6.68 ± 0.13 µM and the inhibition at 100 µg/mL was > 90%. In assay [2], the “inhibition percentage of Aβ1–42 self-aggregation” value worked out at 15.9 ± 1.0. In addition, in assay [3], the IC50 stood at 5.31 ± 0.5 µM and the inhibition at 100 µg/mL is > 90%.

On to `COc1ccc2c(c1O)-c1c(O)c(OC)cc3c1[C@H](C2)[N+](C)(C)CC3` [Magnoflorine (PC1), Magnoflorine], for which the IC50 in assay [1] (read-out: IC50 hBuChE µM ± SD) is 131 ± 9 µM; in assay [3] (read-out: IC50 hAChE µM ± SD), 1120 ± 83 µM. Further, the inhibition at 100 µg/mL came to 69.9 ± 2.4% in assay [1] and 19 ± 2.9% in assay [3]. This compound returned a selectivity index in assay [1] (selective for hBuChE over hAChE) of 8.5. Moreover, the “cognitive functions in a passive avoidance test” value in assay [4] was “significantly enhanced”. Besides, the “long-term scopolamine-induced memory impairment” value in assay [4] is recorded as “able to reverse”.

In the case of `COc1ccc2c3c1O[C@H]1C[C@@H](O)C=C[C@@]31CCN(C)C2` [Galanthamine, reference compound], in assay [1], the inhibition at 100 µg/mL was > 90%.

On to `COc1ccc2c(c[n+](C)c3c4cc5c(cc4ccc23)OCO5)c1OC` [chelerythrine, 1,2-dimethoxy-12-methyl[1,3]benzodioxolo[5,6-c]phenanthridin-12-ium], for which the “inhibition of Aβ self-aggregation” value in assay [5] is “significantly inhibit”. Moreover, in assay [6], the “inhibition of human cholinesterases” value is listed as “micromolar inhibitor”.

By IC50 is commonly meant the concentration needed to halve the response being measured.
